Experimental data: patent US20250230154A1, “COMPOUND HAVING SHP2 PROTEIN DEGRADING ACTIVITY, AND MEDICAL USES THEREOF” (UBIX THERAPEUTICS, INC., priority 2021, published 2025)

Molecular target: T1, SHP2 protein (Homo sapiens, UniProt Q06124)
T1 sequence (Q06124 1-593): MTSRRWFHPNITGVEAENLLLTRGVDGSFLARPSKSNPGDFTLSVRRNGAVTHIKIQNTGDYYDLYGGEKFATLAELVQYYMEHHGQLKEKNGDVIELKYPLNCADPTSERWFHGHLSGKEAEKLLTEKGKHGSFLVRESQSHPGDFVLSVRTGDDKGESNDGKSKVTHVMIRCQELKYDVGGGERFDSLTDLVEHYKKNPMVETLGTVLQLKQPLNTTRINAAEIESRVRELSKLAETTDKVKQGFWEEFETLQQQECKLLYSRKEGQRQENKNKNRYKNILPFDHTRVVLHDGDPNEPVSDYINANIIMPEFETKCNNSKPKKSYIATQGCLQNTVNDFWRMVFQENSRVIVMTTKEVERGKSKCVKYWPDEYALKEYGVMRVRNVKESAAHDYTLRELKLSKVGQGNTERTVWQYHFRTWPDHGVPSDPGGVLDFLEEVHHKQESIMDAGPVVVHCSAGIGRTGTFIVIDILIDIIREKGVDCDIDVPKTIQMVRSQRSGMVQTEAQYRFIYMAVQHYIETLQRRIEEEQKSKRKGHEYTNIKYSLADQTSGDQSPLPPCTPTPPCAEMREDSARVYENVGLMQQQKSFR
Experiment: Measurement of SHP2 protein degradation in KYSE-520 cells (western blotting)
Assay type: cell-based
Set-up: endogenous in cells
Details: 24 hours
Description: Experimental Example 1: Measurement of SHP2 Protein Degradation in KYSE-520 Cells
KYSE-520 cells were treated with the synthesized Example compound, and the amount of SHP2 protein present in the cells was measured using western blotting detection. The protocol of the experiment conducted using KYSE-520 cells was as follows:
[Culture] KYSE-520 cells resuspended in RPMI1640 MEDIUM (Hyclone, SH30027.01) containing 5% FBS (Hyclone, SV30207.02) and 1% Penicillin-streptomycin (Welgene, LS 202-02) were seeded at a density of 2.5×10^5/well in a 6-well plate in an amount of 2 ml each and incubated for 2 days.
[Compound treatment] […] After 24 hours, cells were harvested. For the negative control group, DMSO diluted 1/10 to the media (3 mL DMSO+27 mL media) was added.
[Cell Lysis and Protein Quantification] Lysis buffer was prepared as follows: […] of RIPA buffer (Biosesang, RC2038-050-00)+0.5 mM PMSF (SIGMA, P7626)+1× Protease/Phosphatase Inhibitor (Cell signaling, 5872S) per well was added and placed on ice for 30 minutes (vortexing at 0 and 30 minutes, respectively). After sonication process (10 seconds pulse, 30 seconds rest, 5 cycles, 70% amplification), centrifugation (15000 g, 15 min, 4° C.) was performed, and then only the supernatant was taken and transferred to a new microtube. The sample was diluted ¼ with RIPA buffer in a 96-well plate, and mixed with A:B=50:1 of the BCA Protein Assay Kit (iNtRON, 21071). […] each of the mixture was left at 37° C. for 30 minutes, and cooled for 10 minutes. Then, absorbance was measured at 562 nm with the SYNERGY H1 microplate reader from BioTek. After making a sample by quantifying the protein with the measured value, boiling was performed at 70° C. for 10 minutes. At this time, the sample buffer used was a mixture of NuPAGE or Bolt 4× sample buffer (Invitrogen) and each 10× sample reducing agent according to the gel to be used, and RIPA buffer was used for protein dilution.
[Western blotting detection method] The same amount of sample was loaded on NuPAGE or Bolt Bis-tris 4-12% gradient gel and run (200 V, 35 minutes). It was transferred to 0.2 mm NC membrane with Trans-blot Turbo (BIO-RAD) (1.3 A constant, 25 V limit, 15 minutes). Blocking was performed at room temperature for 1 hour with Skim milk or Intercept Blocking Buffer (LI-COR, 927-60001):0.1% TBST=1:1. Anti SHPTP2 Mouse (1:500 in 5% Skim milk/TBST, size: 70 kDa, Santacruz sc-7384) was incubated overnight at 4° C., and Anti GAPDH Rabbit (1:2,000 in 5% BSA/0.2% TBST, size: 37 kDa, CST #2118) was incubated at room temperature for 1 hour 30 minutes or 3 hours. It was washed 3 times for 5 minutes each with 0.2% TBST washing buffer. Secondary antibody Anti-Rabbit IgG (1:5,000 in 5% Skim milk/0.2% TBST, CST), and IRDye® 680RD Goat anti-Rabbit IgG Secondary Antibody (1:10,000 in 5% BSA/0.2% TBST, LI-COR 926-68071) were incubated for 45 minutes on a rocker at room temperature. It was washed 5 times for 5 minutes each with 0.2% TBST washing buffer and detected with LI-COR's Odyssey. At this time, SHPTP2 was detected using SuperSignal West Pico PLUS Chemiluminescent Substrate, and house-keeping genes were also detected.
In the results of Table 4 below, Compounds 1-7, 13-19, and 21-26 are results in KYSE-520 cells, and the others are results in MV-4-11 cells.

Row | Structure (SMILES) | SHP2 degradation (%) 10 nM | SHP2 degradation (%) 100 nM | SHP2 degradation (%) 1000 nM
1 | Cc1ncsc1-c1ccc(CNC(=O)[C@@H]2C[C@@H](O)CN2C(=O)[C@@H](NC(=O)C2(F)CC2)C(C)(C)C)c(OCCCCN2CCC(CC(=O)Nc3cccc(Sc4cnc(N5CCC(C)(CN)CC5)cn4)c3Cl)CC2)c1 [Example 7, (2S,4R)—N-(2-(4-(4-(2-((3-((5-(4-(aminomethyl)-4-methylpiperidin-1-yl)pyrazin-2-yl)thio)-2-chlorophenyl)amino)-2-oxoethyl)piperidin-1-yl)butoxy)-4-(4-methylthiazol-5-yl)benzyl)-1-((S)-2-(1-fluorocyclopropane-1-carboxamido)-3,3-dimethylbutanoyl)-4-hydroxypyrrolidine-2-carboxamide] | 25.4% | 75.2% | 93.8%
2 | Cc1ncsc1-c1ccc(CNC(=O)[C@@H]2C[C@@H](O)CN2C(=O)[C@@H](NC(=O)C2(F)CC2)C(C)(C)C)c(OCCN2CCC(CC(=O)Nc3cccc(Sc4cnc(N5CCC(C)(CN)CC5)cn4)c3Cl)CC2)c1 [Example 5, (2S,4R)—N-(2-(2-(4-(2-((3-((5-(4-(aminomethyl)-4-methylpiperidin-1-yl)pyrazin-2-yl)thio)-2-chlorophenyl)amino)-2-oxoethyl)piperidin-1-yl)ethoxy)-4-(4-methylthiazol-5-yl)benzyl)-1-((S)-2-(1-fluorocyclopropane-1-carboxamido)-3,3-dimethylbutanoyl)-4-hydroxypyrrolidine-2-carboxamide] | 3.4% | 56.7% | 90.6%
3 | Cc1ncsc1-c1ccc(CNC(=O)[C@@H]2C[C@@H](O)CN2C(=O)[C@@H](NC(=O)C2(F)CC2)C(C)(C)C)c(OCCCCCC(=O)N2CCC(CCCC(=O)Nc3cccc(Sc4cnc(N5CCC(C)(CN)CC5)cn4)c3Cl)CC2)c1 [Example 26, (2S,4R)—N-(2-((6-(4-(4-((3-((5-(4-(aminomethyl)-4-methylpiperidin-1-yl)pyrazin-2-yl)thio)-2-chlorophenyl)amino)-4-oxobutyl)piperidin-1-yl)-6-oxohexyl)oxy)-4-(4-methylthiazol-5-yl)benzyl)-1-((S)-2-(1-fluorocyclopropane-1-carboxamido)-3,3-dimethylbutanoyl)-4-hydroxypyrrolidine-2-carboxamide] | 40.6% | 83.2% | 95.0%
4 | Cc1ncsc1-c1ccc(CNC(=O)[C@@H]2C[C@@H](O)CN2C(=O)[C@@H](NC(=O)C2(F)CC2)C(C)(C)C)c(OCCCC(=O)N2CCC(CCCC(=O)Nc3cccc(Sc4cnc(N5CCC(C)(CN)CC5)cn4)c3Cl)CC2)c1 [Example 25, (2S,4R)—N-(2-(4-(4-(4-((3-((5-(4-(aminomethyl)-4-methylpiperidin-1-yl)pyrazin-2-yl)thio)-2-chlorophenyl)amino)-4-oxobutyl)piperidin-1-yl)-4-oxobutoxy)-4-(4-methylthiazol-5-yl)benzyl)-1-((S)-2-(1-fluorocyclopropane-1-carboxamido)-3,3-dimethylbutanoyl)-4-hydroxypyrrolidine-2-carboxamide] | – | 61.8% | 94.7%
5 | Cc1ncsc1-c1ccc(CNC(=O)[C@@H]2C[C@@H](O)CN2C(=O)[C@@H](NC(=O)C2(F)CC2)C(C)(C)C)c(OCCN2CCC(CCCC(=O)Nc3cccc(Sc4cnc(N5CCC(C)(CN)CC5)cn4)c3Cl)CC2)c1 [Example 16, (2S,4R)—N-(2-(2-(4-(4-((3-((5-(4-(aminomethyl)-4-methylpiperidin-1-yl)pyrazin-2-yl)thio)-2-chlorophenyl)amino)-4-oxobutyl)piperidin-1-yl)ethoxy)-4-(4-methylthiazol-5-yl)benzyl)-1-((S)-2-(1-fluorocyclopropane-1-carboxamido)-3,3-dimethylbutanoyl)-4-hydroxypyrrolidine-2-carboxamide] | −24.3% | 45.1% | 84.0%
6 | Cc1ncsc1-c1ccc(CNC(=O)[C@@H]2C[C@@H](O)CN2C(=O)[C@@H](NC(=O)C2(F)CC2)C(C)(C)C)c(OCCCC(=O)N2CCC(CC(=O)Nc3cccc(Sc4cnc(N5CCC(C)(CN)CC5)cn4)c3Cl)CC2)c1 [Example 23, (2S,4R)—N-(2-(4-(4-(2-((3-((5-(4-(aminomethyl)-4-methylpiperidin-1-yl)pyrazin-2-yl)thio)-2-chlorophenyl)amino)-2-oxoethyl)piperidin-1-yl)-4-oxobutoxy)-4-(4-methylthiazol-5-yl)benzyl)-1-((S)-2-(1-fluorocyclopropane-1-carboxamido)-3,3-dimethylbutanoyl)-4-hydroxypyrrolidine-2-carboxamide] | 8.4% | 44.3% | 64.2%
7 | Cc1ncsc1-c1ccc(CNC(=O)[C@@H]2C[C@@H](O)CN2C(=O)[C@@H](NC(=O)C2(F)CC2)C(C)(C)C)c(OCCCCCCN2CC(C(=O)Nc3cccc(Sc4cnc(N5CCC(C)(CN)CC5)cn4)c3Cl)C2)c1 [Example 19, (2S,4R)—N-(2-((6-(3-((3-((5-(4-(aminomethyl)-4-methylpiperidin-1-yl)pyrazin-2-yl)thio)-2-chlorophenyl)carbamoyl)azetidin-1-yl)hexyl)oxy)-4-(4-methylthiazol-5-yl)benzyl)-1-((S)-2-(1-fluorocyclopropane-1-carboxamido)-3,3-dimethylbutanoyl)-4-hydroxypyrrolidine-2-carboxamide] | – | 31.5% | 78.0%
8 | Cc1ncsc1-c1ccc(CNC(=O)[C@@H]2C[C@@H](O)CN2C(=O)[C@@H](NC(=O)C2(F)CC2)C(C)(C)C)c(OCCCCN2CCC(CCC(=O)Nc3cccc(Sc4cnc(N5CCC(C)(CN)CC5)cn4)c3Cl)CC2)c1 [Example 15, (2S,4R)—N-(2-(4-(4-(3-((3-((5-(4-(aminomethyl)-4-methylpiperidin-1-yl)pyrazin-2-yl)thio)-2-chlorophenyl)amino)-3-oxopropyl)piperidin-1-yl)butoxy)-4-(4-methylthiazol-5-yl)benzyl)-1-((S)-2-(1-fluorocyclopropane-1-carboxamido)-3,3-dimethylbutanoyl)-4-hydroxypyrrolidine-2-carboxamide] | 21.7% | 58.3% | 74.6%
